Laboratory results from patent publication US11485974B2, “Method of fixing and expressing physiologically active substance” (STELIC INSTITUTE & CO., priority 2007, dated 2022).

Columns and labels:
[1] = Retention of iopamidol injected into the submucous tissue of rat large intestine, X-ray photography and CT scanning; type: in vivo, Wistar rats; conditions: normal rats, 20 μl injected into submucous tissue of the left colon, after one hour
Experimental: Next, the retention of physiologically active substances in the submucous tissue of normal rats was analyzed by diagnostic imaging using X-ray and CT, which are routinely used clinically. Twelve-week-old male Wistar rats were anesthetized with Nembutal, and then an ultrathin endoscope for humans was inserted into the large intestines and 20 μl of iopamidol, a contrast medium, was endoscopically injected alone into the submucous tissue of the left colon using a local injection needle.
X-ray photography and CT scanning was carried out after one hour.

[2] = test system: GalNAc4S-6ST gene expression; test: Gene knockdown by siRNA administered into the submucous tissue of large intestine in DSS colitis model mice, quantitative PCR; type: in vivo, mouse; conditions: 0.3 μg/head into submucous tissue of large intestine, day 5
Experimental: (§1) A colitis model mice was prepared by allowing C57BL/6J mice (female, six weeks old; CLEA Japan Inc.) to freely drink […] containing 3% dextran sulfate sodium (DSS; Wako Pure Chemical Industries Inc.) for five days. This DSS-induced colitis model has excellent reproducibility, and is thus used widely as a standard experimental model for inflammatory bowel diseases such as mouse ulcerative colitis and Crohn's disease (Sasaki N, J Inflamm. 2005 2: 13; as a review, Pucilowska J B et al. Am J Physiol Gastroenterol Liver Physiol. 279: G653-G659, 2000).
The same GalNAc4S-6ST siRNA (0.3 μg/head) as used in Example 5 was injected to the submucous tissue of mouse large intestine, while the mice were allowed to drink water containing 3% DSS. […] The body weight and disease activity index (DAI) score (Kihara M, Gut. 2003 52: 713-9) were recorded for five days while the mice were allowed to drink water containing 3% DDS. […]
1 ml of RNA iso (Takara Bio) was added to 50 mg each of excised organs (large intestine and kidney). […] The RNA concentrations of extracted samples in UV plates (Corning Costar) were determined using a plate reader (POWER Wave XS; BIO-TEK).
Next, reverse transcription reaction (cDNA synthesis) is conducted by the following procedure. […] For quantitative PCR, SYBR Premix Kit (TAKARA) and Real-time PCR thermal cycler DICE (TAKARA) were used. […]

ribonuclease (RNase A) = biological target: T1, ribonuclease (RNase A) (Bos taurus, UniProt P61823); test: Stability test for GalNAc4S-6ST siRNA at 37° C., agarose gel electrophoresis; type: in vitro ADME
T1 construct: purchased SIGMA
T1 sequence (P61823 27-150): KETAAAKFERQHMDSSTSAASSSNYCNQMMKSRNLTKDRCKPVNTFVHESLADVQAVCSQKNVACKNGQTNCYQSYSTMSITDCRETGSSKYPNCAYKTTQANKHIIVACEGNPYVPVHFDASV
Experimental: In this Example, GalNAc4S-6ST siRNA, the same substance used in Example 5, was assessed for its stability. First, test solutions were prepared by adding 1 μg of GalNAc4S-6ST siRNA to 200 μl of sterile phosphate buffer or 0.1% atelocollagen and stirring the mixtures at 4° C. for 20 minutes. 0.1% atelocollagen was prepared by combining 1% atelocollagen (Koken) with ten volumes of sterile phosphate buffer and stirring the mixture at 4° C. for 16 hours. Then, 40 μg of a ribonuclease (RNase A; SIGMA) was added to the prepared test solutions of GalNAc4S-6ST siRNA, and the mixtures were incubated to react at 37° C. The reaction time was 5, 15, 30, 45, or 60 minutes. 500 μl of RNA iso (Takara Bio) was added to the test solutions after reaction. The mixtures were incubated on ice for five minutes, and centrifuged at 14,000 rpm for 15 minutes. The resulting supernatants were collected, and 500 μl of isopropanol and 1 μl of glycogen (Invitrogen) were added thereto. The mixtures were incubated for 15 minutes, and centrifuged at 14,000 rpm for 15 minutes. The supernatants were discarded, and the pellets were saved. 1 ml of 75% ethanol was added to the pellets, and the mixtures were centrifuged at 14,000 rpm for 15 minutes. After this step was repeated twice, the pellets were dried and dissolved in 25 μl of injection solvent (Otsuka Pharmaceutical). 10 μl each of the solutions were combined with 2 μl of Loading Dye (Invitrogen). 3.5% agarose gel was prepared using UltraPure Agarose (Invitrogen), and the samples were electrophoresed in a Mupid-2 plus (ADVANCE) at 100 V for 20 minutes. After electrophoresis, the gel was shaken for 20 minutes in a stain solution prepared by 10,000 times diluting Ethidium Bromide (Invitrogen) with 1×LoTE (composition: 3 mM Tris-HCl (pH 7.5) (Invitrogen), 0.2 mM EDTA (pH 7.5) (Sigma Aldrich Japan)). The gel was photographed with Fluourchem (Innotech) and analyzed.

[3] = test system: DSS-induced colitis model mice; test: Disease activity index (DAI: stool consistency, fecal occult blood) in DSS colitis model mice; type: in vivo, C57BL/6J mice; conditions: compared to the control group
Experimental: as §1
The same GalNAc4S-6ST siRNA (0.3 μg/head) as used in Example 5 was injected to the submucous tissue of mouse large intestine, while the mice were allowed to drink water containing 3% DSS. The control groups used were: a group injected with scramble siRNA (“BLOCK-iT Fluorescent Oligo (Invitrogen)” in Example 4) and an untreated group in which mice were allowed to drink DSS water only. The body weight and disease activity index (DAI) score (Kihara M, Gut. 2003 52: 713-9) were recorded for five days while the mice were allowed to drink water containing 3% DDS. […]
The colitis activity index (DAI) was analyzed by the same method described in Example 7.
The first day (day 0) of feeding with DSS water is defined as 1, and the stool consistency and fecal occult blood in each mouse were recorded. […]

[4] = test system: DSS-induced colitis model mice; test: Length of the large intestine (colonic contraction) in DSS colitis model mice; type: in vivo, C57BL/6J mice; conditions: day five, p<0.05, t test
Experimental: as §1
(§2) The same GalNAc4S-6ST siRNA (0.3 μg/head) as used in Example 5 was injected to the submucous tissue of mouse large intestine, while the mice were allowed to drink water containing 3% DSS. The control groups used were: a group injected with scramble siRNA (“BLOCK-iT Fluorescent Oligo (Invitrogen)” in Example 4) and an untreated group in which mice were allowed to drink DSS water only. The body weight and disease activity index (DAI) score (Kihara M, Gut. 2003 52: 713-9) were recorded for five days while the mice were allowed to drink water containing 3% DDS. Then, the mice were sacrificed on the fifth day.
Next, the length of the large intestine was measured after sacrificing mice on day five. […] The length of the large intestine is a crucial indicator that reflects the intestinal fibrosis.

[5] = test system: DSS-induced colitis model mice; test: Histology (hematoxylin-eosin) of large intestine in DSS colitis model mice; type: in vivo, C57BL/6J mice; conditions: HE-stained sections of large intestine
Experimental: as §1, §2
Next, tissue sections were prepared from collected large intestines and stained with hematoxylin-eosin. The resulting histological images were analyzed (FIG. 10).

[6] = Nucleic acid kinetics in the submucous tissue of mouse large intestine, siRNA concentration by ELISA; type: in vivo; conditions: mice, 0.3 μg/10 μl at three sites
Experimental: Next, in order to also confirm the retention of injected siRNA in the submucous tissue of the large intestine by biochemical methods, the concentration of siRNA in the large intestine was determined by using the ELISA method for direct quantitation of siRNA according to a published report (Rosie Z et al. Analytical Biochem. 304: 19-25, 2002). The nucleotide sequences of GalNac 4S-6ST siRNA used in this Example are shown below, but the sequences are not limited to the example shown herein.
GalNAc4S-6ST siRNA (0.3 μg/10 μl) was injected at three sites to the submucous tissue of large intestine in eight-week-old female C57BL/6.1 mice by the same method described in Example 3. The mice were sacrificed 0.5, 3, 6, or 24 hours after injection to prepare histological samples of the large intestine. The siRNA concentrations were determined by the ELISA methods.
1 μg/ml siRNA before injection was used as a positive control without any additional treatment.

[7] = presence of ribonuclease (RNase A), phosphate buffer

## C[C@H](O)C(=O)Nc1c(I)c(C(=O)NC(CO)CO)c(I)c(C(=O)NC(CO)CO)c1I [iopamidol, N,N′-Bis[2-hydroxy-1-(hydroxymethyl)ethyl]-5-[(2S)-2-hydroxypropanoylamino]-2,4,6-triiodoisophthalamide]
[1]
  Retention at the injection site, CT images: retained specifically at the injection sites and did not spread to other slices
  Retention at the injection site, X-ray images: retained in the submucous tissue of the colon without intraperitoneal leakage and transfer to other sections

## GalNAc4S-6ST siRNA: siRNA of SEQ ID NOs: 1 and 2 against GalNAc4S-6ST (Gene Bank accession number NM_015892), Hokkaido System Science (chain 1 GGAGCAGAGCAAGAUGAAUACAAUCAG; chain 2 GAUUGUAUUCAUCUUGCUCUGCUCCAU; listed as RNA, further chemistry not given here)
[2]
  Expression of GalNAc4S-6ST in the kidney: remained unchanged
  Expression of GalNAc4S-6ST in the large intestine: significantly suppressed the increased expression
Ribonuclease (RNase A); absence of ribonuclease, sterile phosphate buffer, after 60 minutes
  Stability (gel band): relatively stable
Ribonuclease (RNase A); [7]
  Time after which the band disappeared: 30 min
  Time point at which siRNA degradation was observed: 15 min
Ribonuclease (RNase A); siRNA embedded in 0.1% atelocollagen, ribonuclease (RNase A), after 30 minutes
  Gel band: faint but detectable
[3]
  DAI score (stool consistency and fecal occult blood): lower
[4]
  Colonic contraction (length of the large intestine): significantly suppressed
[5]
  Epithelial disruption, infiltration of inflammatory cells into lamina propria and submucosa, and thickening of muscular layer: markedly suppressed
[6]; 0.5 hour after injection
  siRNA concentration in the large intestine: retained at a very high concentration
[6]; 24 hours after injection
  siRNA concentration in the large intestine: continually remained retained
[6]; three hours after injection
  siRNA concentration in the large intestine: decreased by half
